Assay [1] deals with Campylobacter jejuni. The experiment in a line: Antimicrobial activity against Campylobacter jejuni DC26 infected in 15 days old chicken food on medicated food by agar dilution method. In kind it is functional. A general note: Agar dilution tests growth on a series of plates holding different concentrations.
The test system of assay [2] is Campylobacter jejuni. The experiment in a line: Antimicrobial activity against Campylobacter jejuni DC2 infected in chicken assessed as microbial shedding level after compound administration through feed for 20 days. The format is functional, organism-based.
Assay [3] relates to Campylobacter jejuni. The assay can be described thus: Antimicrobial activity against Campylobacter jejuni DC2 infected in 15 days old chicken by agar dilution method. The format is functional.
Assay [4] has as its system Campylobacter jejuni. The assay can be described thus: Antimicrobial activity against Campylobacter jejuni DC26 infected in chicken assessed as microbial shedding level after compound administration through feed for 20 days. In kind it is functional, organism-based.
The test system of assay [5] is Campylobacter jejuni. The assay can be described thus: Antimicrobial activity against Campylobacter jejuni DC6 infected in 3 days old chicken by agar dilution method. The format is functional.
Assay [6] relates to Campylobacter jejuni. The assay can be described thus: Antimicrobial activity against Campylobacter jejuni DC2 infected in 15 days old chicken food on medicated food by agar dilution method. The format is functional.
The test system of assay [7] is Campylobacter jejuni. The experiment in a line: Antimicrobial activity against Campylobacter jejuni DC2 infected in 3 days old chicken by agar dilution method. The format is functional.

≈ marks a conversion by molar mass, not a printed value. Calls of active or inactive are those of the source. The rule behind the calls is not given here.

For the compound `CC[C@H]1OC(=O)C[C@@H](O)[C@H](C)[C@@H](O[C@@H]2O[C@H](C)[C@@H](O[C@H]3C[C@@](C)(O)[C@@H](O)[C@H](C)O3)[C@H](N(C)C)[C@H]2O)[C@@H](CC=O)C[C@@H](C)C(=O)/C=C/C(C)=C/[C@@H]1CO[C@@H]1O[C@H](C)[C@@H](O)[C@@H](OC)[C@H]1OC` [TYLOSIN], the MIC (in general, the lowest concentration found to suppress growth) was 128 µg/mL (≈ 140 µM) against Campylobacter jejuni [1]; 64 µg/mL (≈ 69.9 µM) against Campylobacter jejuni [3]; more than 512 µg/mL in the assay on Campylobacter jejuni [5]; 64 µg/mL (≈ 69.9 µM) in the assay on Campylobacter jejuni [6]; 64 µg/mL (≈ 69.9 µM) against Campylobacter jejuni [7]. Further, the result in the assay with Campylobacter jejuni [2] and in the assay with Campylobacter jejuni [4] was inactive.

Source of the values: ChEMBL document CHEMBL1671637, “Development, stability, and molecular mechanisms of macrolide resistance in Campylobacter jejuni” (2008).
